According to PubChem BioAssay (NCI):
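These data come from cells grown in 96-well plates and exposed to compound for 48 hours at five concentrations. At the GI50, growth is halved. TGI is the concentration that stops growth completely.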

How the values were obtained:
Test in all cases: DTP human tumour cell line panel, 48 h
786-0 renal = system: 786-0 renal
A498 renal = system: A498 renal
A549 NSCLC = system: A549 NSCLC
ACHN renal = system: ACHN renal
BT-549 breast = system: BT-549 breast
CAKI-1 renal = system: CAKI-1 renal
COLO 205 colon = system: COLO 205 colon
DU-145 prostate = system: DU-145 prostate
EKVX NSCLC = system: EKVX NSCLC
HCC-2998 colon = system: HCC-2998 colon
HCT-116 colon = system: HCT-116 colon
HCT-15 colon = system: HCT-15 colon
HL-60(TB) leukemia = system: HL-60(TB) leukemia
HOP-62 NSCLC = system: HOP-62 NSCLC
HOP-92 NSCLC = system: HOP-92 NSCLC
HS 578T breast = system: HS 578T breast
HT29 colon = system: HT29 colon
IGROV1 ovarian = system: IGROV1 ovarian
K-562 leukemia = system: K-562 leukemia
KM12 colon = system: KM12 colon
LOX IMVI melanoma = system: LOX IMVI melanoma
M14 melanoma = system: M14 melanoma
MALME-3M melanoma = system: MALME-3M melanoma
MCF7 breast = system: MCF7 breast
MDA-MB-231 breast = system: MDA-MB-231 breast
MDA-MB-435 = system: MDA-MB-435
MOLT-4 leukemia = system: MOLT-4 leukemia
NCI-H226 lung = system: NCI-H226 lung
NCI-H23 lung = system: NCI-H23 lung
NCI-H460 lung = system: NCI-H460 lung
NCI-H522 lung = system: NCI-H522 lung
NCI/ADR-RES ovarian = system: NCI/ADR-RES ovarian
OVCAR-3 ovarian = system: OVCAR-3 ovarian
OVCAR-4 ovarian = system: OVCAR-4 ovarian
OVCAR-5 ovarian = system: OVCAR-5 ovarian
OVCAR-8 ovarian = system: OVCAR-8 ovarian
PC-3 prostate = system: PC-3 prostate
RPMI-8226 leukemia = system: RPMI-8226 leukemia
RXF 393 renal = system: RXF 393 renal
SF-268 CNS = system: SF-268 CNS
SF-295 CNS = system: SF-295 CNS
SF-539 CNS = system: SF-539 CNS
SK-MEL-2 melanoma = system: SK-MEL-2 melanoma
SK-MEL-28 melanoma = system: SK-MEL-28 melanoma
SK-MEL-5 melanoma = system: SK-MEL-5 melanoma
SK-OV-3 ovarian = system: SK-OV-3 ovarian
SN12C renal = system: SN12C renal
SNB-19 CNS = system: SNB-19 CNS
SNB-75 CNS = system: SNB-75 CNS
SR leukemia = system: SR leukemia
SW-620 colon = system: SW-620 colon
T-47D breast = system: T-47D breast
TK-10 renal = system: TK-10 renal
U251 CNS = system: U251 CNS
UACC-257 melanoma = system: UACC-257 melanoma
UACC-62 melanoma = system: UACC-62 melanoma
UO-31 renal = system: UO-31 renal

## C[C@H]1O[C@@H](O[C@H]2[C@@H](O)C[C@H](O[C@H]3[C@@H](O)C[C@H](O[C@H]4CC[C@]5(C)C6CC[C@]7(C)[C@@H](C8=CC(=O)OC8)CC[C@]7(O)C6CC[C@@H]5C4)O[C@@H]3C)O[C@@H]2C)C[C@H](O)[C@@H]1O (some centres undefined)
786-0 renal
  GI50: 17.2 nM
  TGI: 59.6 nM
A498 renal
  GI50: 35.1 nM
  TGI: 262 nM
A549 NSCLC
  GI50: 7.76 nM
  TGI: 15.5 nM
ACHN renal
  GI50: 12.6 nM
  TGI: 39.1 nM
BT-549 breast
  GI50: 16.3 nM
  TGI: 50.8 nM
CAKI-1 renal
  GI50: 12.6 nM
  TGI: 33.9 nM
COLO 205 colon
  GI50: 30.9 nM
  TGI: 102 nM
DU-145 prostate
  GI50: 11.3 nM
  TGI: 24.9 nM
EKVX NSCLC
  GI50: 14.1 nM
  TGI: 38.3 nM
HCC-2998 colon
  GI50: 36.1 nM
  TGI: 174 nM
HCT-116 colon
  TGI: 49.4 nM
HCT-15 colon
  GI50: 25.7 nM
  TGI: 98.2 nM
HL-60(TB) leukemia
  GI50: 11.4 nM
  TGI: 26.1 nM
HOP-62 NSCLC
  GI50: 11.8 nM
  TGI: 29.5 nM
HOP-92 NSCLC
  GI50: 35.4 nM
  TGI: 149 nM
HS 578T breast
  GI50: 13 nM
  TGI: 1570 nM
HT29 colon
  GI50: 19.3 nM
  TGI: 65.3 nM
IGROV1 ovarian
  GI50: 26.1 nM
  TGI: 2220 nM
K-562 leukemia
  GI50: 15.9 nM
  TGI: 79.9 nM
KM12 colon
  GI50: 24.7 nM
  TGI: 103 nM
LOX IMVI melanoma
  GI50: 15.6 nM
  TGI: 54.9 nM
M14 melanoma
  GI50: 32.8 nM
  TGI: 98.6 nM
MALME-3M melanoma
  GI50: 19 nM
  TGI: 78.3 nM
MCF7 breast
  GI50: 18.1 nM
  TGI: 110 nM
MDA-MB-231 breast
  GI50: 62.1 nM
  TGI: 353 nM
MDA-MB-435
  GI50: 17 nM
  TGI: 66.6 nM
MOLT-4 leukemia
  GI50: 11.3 nM
  TGI: 34.1 nM
NCI-H226 lung
  GI50: 47.6 nM
  TGI: 115 nM
NCI-H23 lung
  GI50: 11.7 nM
  TGI: 35.5 nM
NCI-H460 lung
  GI50: 9.73 nM
  TGI: 23.1 nM
NCI-H522 lung
  TGI: 31.9 nM
NCI/ADR-RES ovarian
  GI50: 14.4 nM
  TGI: 43.5 nM
OVCAR-3 ovarian
  TGI: 43 nM
OVCAR-4 ovarian
  TGI: 73.2 nM
OVCAR-5 ovarian
  GI50: 38.3 nM
  TGI: 111 nM
OVCAR-8 ovarian
  GI50: 17.8 nM
  TGI: 64.8 nM
PC-3 prostate
  GI50: 19.4 nM
  TGI: 106 nM
RPMI-8226 leukemia
  GI50: 19.4 nM
  TGI: 135 nM
RXF 393 renal
  GI50: 14.2 nM
  TGI: 43.9 nM
SF-268 CNS
  GI50: 15.9 nM
  TGI: 57.8 nM
SF-295 CNS
  GI50: 14 nM
  TGI: 54.5 nM
SF-539 CNS
  GI50: 14.1 nM
  TGI: 37.3 nM
SK-MEL-2 melanoma
  GI50: 19.2 nM
  TGI: 67.5 nM
SK-MEL-28 melanoma
  GI50: 31.3 nM
  TGI: 101 nM
SK-MEL-5 melanoma
  GI50: 15.6 nM
  TGI: 49.3 nM
SK-OV-3 ovarian
  GI50: 19 nM
  TGI: 67 nM
SN12C renal
  GI50: 16.7 nM
  TGI: 112 nM
SNB-19 CNS
  GI50: 30 nM
  TGI: 94.8 nM
SNB-75 CNS
  GI50: 18.2 nM
  TGI: 102 nM
SR leukemia
  TGI: 51.2 nM
SW-620 colon
  GI50: 17.8 nM
  TGI: 67.8 nM
T-47D breast
  GI50: 17.2 nM
  TGI: 60.8 nM
TK-10 renal
  GI50: 16.5 nM
  TGI: 50.4 nM
U251 CNS
  GI50: 18.6 nM
  TGI: 67.6 nM
UACC-257 melanoma
  GI50: 20.3 nM
  TGI: 73.4 nM
UACC-62 melanoma
  GI50: 19.2 nM
  TGI: 75 nM
UO-31 renal
  GI50: 18.1 nM
  TGI: 72.2 nM
